Patent US20150038438A1, “ANTIBACTERIAL COMPOUNDS AND METHODS FOR USE” (PTC THERAPEUTICS, INC., priority 2011, published 2015)
Converted amounts (≈) assume the structure as drawn. Counter-ions that a name gives are not always drawn.

Experiments:
Assay in all cases: Antibacterial activity, microbroth dilution method (MIC)
[1] = system: control Gram-negative E. coli 25922 strain; format: cell-based, Escherichia coli; conditions: Escherichia coli
Text: (§1) The antibacterial activity from a microbroth dilution method may be presented as the minimum inhibitory concentration (MIC in μg/mL). The MIC value is the lowest concentration of drug which prevents macroscopically visible growth under test conditions.
(§2) Antibacterial activity of test compounds against the super sensitive Gram-negative Escherichia coli (E. coli) BAS849 bacterium, the control Gram-negative E. coli 25922 strain and the Gram-positive Staphylococcus aureus (S. aureus) 29213 bacterium are shown in Table 1.

[2] = system: Gram-positive Staphylococcus aureus (S. aureus) 29213; format: cell-based; conditions: Staphylococcus aureus, Gram-positive S. aureus 29213
Text: as §1, §2

[3] = system: super sensitive Gram-negative Escherichia coli (E. coli) BAS849; format: cell-based; conditions: Escherichia coli; super sensitive Gram-negative E. coli BAS849; microbroth dilution; read-out: MIC, E. coli BAS849
Text: as §1, §2

| Compound | MIC [1] [µg/mL] | MIC [2] [µg/mL] | MIC [3] [µg/mL] |
| --- | --- | --- | --- |
| CN(C)C1CCN(c2ccc3c(c2)CCCc2c-3[nH]c(=O)c(C(=O)O)c2O)C1.Cl (stereo not drawn) [Cpd 6, 9-(3-(dimethylamino)pyrrolidin-1-yl)-4-hydroxy-2-oxo-2,5,6,7-tetrahydro-1H-benzo[6,7]cyclohepta[1,2-b]pyridine-3-carboxylic acid hydrochloride] | 3.5 to 12.5 | 12.5 to 150 | < 1 |
| CCNCc1cc2cc3c(cc2n1C)CCCc1c-3[nH]c(=O)c(C(=O)O)c1O.Cl [Cpd 25, 10-((ethylamino)methyl)-4-hydroxy-9-methyl-2-oxo-1,2,5,6,7,9-hexahydropyrido[3′,2′:6,7]cyclohepta[1,2-f]indole-3-carboxylic acid hydrochloride] | < 1 | 3.5 to 12.5 | < 1 |
| CC(C)CNCc1cc2cc3c(cc2n1C)CCCc1c-3[nH]c(=O)c(C(=O)O)c1O.Cl [Cpd 154, 4-hydroxy-10-((isobutylamino)methyl)-9-methyl-2-oxo-1,2,5,6,7,9-hexahydropyrido[3′,2′:6,7]cyclohepta[1,2-f]indole-3-carboxylic acid hydrochloride] | < 1 | 3.5 to 12.5 | < 1 |
| Cl.Cn1c(CNC2CCC2)cc2cc3c(cc21)OCCc1c-3[nH]c(=O)c(C(=O)O)c1O [Cpd 172, 10-((cyclobutylamino)methyl)-4-hydroxy-9-methyl-2-oxo-2,5,6,9-tetrahydro-1H-pyrido[2′,3′:4,5]oxepino[3,2-f]indole-3-carboxylic acid hydrochloride] | < 1 | 3.5 to 12.5 | < 1 |
| Cl.O=C(O)c1c(O)c2c([nH]c1=O)-c1ccc(N3CCC4(CCNC4)C3)cc1CCC2 (stereo not drawn) [Cpd 122, 4-hydroxy-2-oxo-9-(2,7-diazaspiro[4.4]nonan-2-yl)-2,5,6,7-tetrahydro-1H-benzo[6,7]cyclohepta[1,2-b]pyridine-3-carboxylic acid hydrochloride] | 12.5 to 150 | 12.5 to 150 | 12.5 to 150 |
| COC1CCN(Cc2cc3cc4c(cc3n2C)CCCc2c-4[nH]c(=O)c(C(=O)O)c2O)C1.Cl (stereo not drawn) [Cpd 158, 4-hydroxy-10-((3-methoxypyrrolidin-1-yl)methyl)-9-methyl-2-oxo-1,2,5,6,7,9-hexahydropyrido[3′,2′:6,7]cyclohepta[1,2-f]indole-3-carboxylic acid hydrochloride] | 1 to 3.5 | 3.5 to 12.5 | < 1 |
| Cl.Cl.Cn1c(CNCCN)cc2cc3c(cc21)CCCc1c-3[nH]c(=O)c(C(=O)O)c1O [Cpd 144, 10-(((2-aminoethyl)amino)methyl)-4-hydroxy-9-methyl-2-oxo-1,2,5,6,7,9-hexahydropyrido[3′,2′:6,7]cyclohepta[1,2-f]indole-3-carboxylic acid dihydrochloride] | 12.5 to 150 | 12.5 to 150 | 3.5 to 12.5 |
| Cl.Cn1c(CN)cc2cc3c(cc21)CCCc1c-3[nH]c(=O)c(C(=O)O)c1O [Cpd 35, 10-(aminomethyl)-4-hydroxy-9-methyl-2-oxo-1,2,5,6,7,9-hexahydropyrido[3′,2′:6,7]cyclohepta[1,2-f]indole-3-carboxylic acid hydrochloride] | 1 to 3.5 | 3.5 to 12.5 | < 1 |
| CN1CCCN(Cc2cc3cc4c(cc3n2C)CCCc2c-4[nH]c(=O)c(C(=O)O)c2O)CC1.Cl.Cl [Cpd 156, 4-hydroxy-9-methyl-10-((4-methyl-1,4-diazepan-1-yl)methyl)-2-oxo-1,2,5,6,7,9-hexahydropyrido[3′,2′:6,7]cyclohepta[1,2-f]indole-3-carboxylic acid dihydrochloride] | 3.5 to 12.5 | 12.5 to 150 | < 1 |
| Cl.O=C(O)c1c(O)c2c([nH]c1=O)-c1ccc(N3CCNCC3)cc1CCC2 [Cpd 119, 4-hydroxy-2-oxo-9-(piperazin-1-yl)-2,5,6,7-tetrahydro-1H-benzo[6,7]cyclohepta[1,2-b]pyridine-3-carboxylic acid hydrochloride] | 12.5 to 150 | 12.5 to 150 | 3.5 to 12.5 |
| CN(C)CCN(C)Cc1cc2cc3c(cc2n1C)CCCc1c-3[nH]c(=O)c(C(=O)O)c1O.Cl.Cl [Cpd 145, 10-(((2-(dimethylamino)ethyl)(methyl)amino)methyl)-4-hydroxy-9-methyl-2-oxo-1,2,5,6,7,9-hexahydropyrido[3′,2′:6,7]cyclohepta[1,2-f]indole-3-carboxylic acid dihydrochloride] | 12.5 to 150 | 12.5 to 150 | < 1 |
| Cl.Cl.Cn1c(CN2CCCC(N)C2)cc2cc3c(cc21)CCCc1c-3[nH]c(=O)c(C(=O)O)c1O (stereo not drawn) [Cpd 31, 10-((3-aminopiperidin-1-yl)methyl)-4-hydroxy-9-methyl-2-oxo-1,2,5,6,7,9-hexahydropyrido[3′,2′:6,7]cyclohepta[1,2-f]indole-3-carboxylic acid dihydrochloride] | 3.5 to 12.5 | 12.5 to 150 | 1 to 3.5 |
| O=C(O)c1c(O)c2c([nH]c1=O)-c1ccc(N3CCCC3)cc1NCC2 [Cpd 94, 4-hydroxy-2-oxo-9-(pyrrolidin-1-yl)-2,5,6,7-tetrahydro-1H-benzo[b]pyrido[2,3-d]azepine-3-carboxylic acid] | 1 to 3.5 (≈ 2.93 to 10.3 µM) | 12.5 to 150 (≈ 36.6 to 439 µM) | < 1 |
| O=C(O)c1c(O)c2c([nH]c1=O)-c1ccc(N3CCCC3)cc1CCC2 [Cpd 7, 4-hydroxy-2-oxo-9-(pyrrolidin-1-yl)-2,5,6,7-tetrahydro-1H-benzo[6,7]cyclohepta[1,2-b]pyridine-3-carboxylic acid] | 12.5 to 150 (≈ 36.7 to 441 µM) | 3.5 to 12.5 (≈ 10.3 to 36.7 µM) | < 1 |
| CC1Cc2cc(N3CCC(N(C)C)C3)ccc2-c2[nH]c(=O)c(C(=O)O)c(O)c21.Cl (stereo not drawn) [Cpd 109, 8-(3-(dimethylamino)pyrrolidin-1-yl)-4-hydroxy-5-methyl-2-oxo-1,2,5,6-tetrahydrobenzo[h]quinoline-3-carboxylic acid hydrochloride] | 12.5 to 150 | 12.5 to 150 | 3.5 to 12.5 |
| CNCc1cc2cc3c(cc2n1C)CCc1c-3[nH]c(=O)c(C(=O)O)c1O.Cl [Cpd 20, 4-hydroxy-8-methyl-9-((methylamino)methyl)-2-oxo-2,5,6,8-tetrahydro-1H-indolo[6,5-h]quinoline-3-carboxylic acid hydrochloride] | 3.5 to 12.5 | 12.5 to 150 | 1 to 3.5 |
| Cl.Cn1c(CNC2CC2)cc2cc3c(cc21)CCCc1c-3[nH]c(=O)c(C(=O)O)c1O [Cpd 36, 10-((cyclopropylamino)methyl)-4-hydroxy-9-methyl-2-oxo-1,2,5,6,7,9-hexahydropyrido[3′,2′:6,7]cyclohepta[1,2-f]indole-3-carboxylic acid hydrochloride] | 1 to 3.5 | 3.5 to 12.5 | < 1 |
| N[C@@H]1[C@H]2CN(c3ccc4c(c3)OCCc3c-4[nH]c(=O)c(C(=O)O)c3O)C[C@@H]12 [Cpd 80, 9-((cis,cis)-6-amino-3-azabicyclo[3.1.0]hexan-3-yl)-4-hydroxy-2-oxo-1,2,5,6-tetrahydrobenzo[2,3]oxepino[4,5-b]pyridine-3-carboxylic acid hydrochloride] | 1 to 3.5 | 12.5 to 150 | < 1 |
| CCCCCCCNCc1cc2cc3c(cc2n1C)CCCc1c-3[nH]c(=O)c(C(=O)O)c1O.Cl [Cpd 139, 10-((heptylamino)methyl)-4-hydroxy-9-methyl-2-oxo-1,2,5,6,7,9-hexahydropyrido[3′,2′:6,7]cyclohepta[1,2-f]indole-3-carboxylic acid hydrochloride] | 12.5 to 150 | 1 to 3.5 | < 1 |
